Reference: patent US10925856B2, “Methods and compositions involving bucindolol for the treatment of atrial fibrillation” (priority 2018, dated 2021)
Where two headings read alike, the source gives them in different places.

Legend:
[1] = in vivo; cited from earlier work
[2] = CYP2D6 Extensive/Ultra Metabolizer
[3] = Drug Titration Period (first 42 days)
[4] = treatment-emergent AE, total follow-up

SMILES: CC(C)(Cc1c[nH]c2ccccc12)NCC(O)COc1ccccc1C#N (centres unmarked) [bucindolol, 2-(3-(1-(1H-indol-3-yl)-2-methylpropan-2-ylamino)-2-hydroxypropoxy)benzonitrile]
- Bioavailability [1]: approximately 30%
- HEADACHE, % of patients [2]: (4.8%)
- HEADACHE, number of patients [2]: 5
- HYPOTENSION, % of patients [2]: (9.5%)
- HYPOTENSION, number of patients [2]: 10
- IMMUNE SYSTEM DISORDERS, % of patients [2]: (1.0%)
- IMMUNE SYSTEM DISORDERS, number of patients [2]: 1
- INFECTIONS AND INFESTATIONS, % of patients [2]: (28.6%)
- INFECTIONS AND INFESTATIONS, number of patients [2]: 30
- INFLUENZA, % of patients [2]: (2.9%)
- INFLUENZA, number of patients [2]: 3
- HEADACHE, % of patients (CYP2D6 Poor Metabolizer): (0.0%)
- HEADACHE, number of patients (CYP2D6 Poor Metabolizer): 0
- INFECTIONS AND INFESTATIONS, % of patients (CYP2D6 Poor Metabolizer): (33.3%)
- INFECTIONS AND INFESTATIONS, number of patients (CYP2D6 Poor Metabolizer): 4
- INFLUENZA, % of patients (CYP2D6 Poor Metabolizer): (8.3%)
- INFLUENZA, number of patients (CYP2D6 Poor Metabolizer): 1
- UPPER RESPIRATORY TRACT INFECTION, % of patients (CYP2D6 Poor Metabolizer): (8.3%)
- UPPER RESPIRATORY TRACT INFECTION, number of patients (CYP2D6 Poor Metabolizer): 1
- AC mortality or CV hosp or treatment disc. due to AE, patients N (%) [3]: 5 (4%)
- All-cause mortality, patients N (%) [3]: 0 (0%)
- AEs leading to study withdrawal (excluding death) (GENETIC-AF, all randomized patients): 1.5%
- Adverse event leading to death, patients N (%) (Total Study On-Drug Period): 2.3%
- Adverse events leading to study withdrawal (excluding death), patients N (%) (Total Study On-Drug Period): 2 (1.5%)
- Adverse event leading to death, patients N (%) (Total Study On-Drug Period, listed as Bucindolol): 3 (2.3%)
- AE SOC frequency: Cardiac Disorders (human, in vivo): 25.4%
- AE SOC frequency: Eye Disorders (human, in vivo): 6.0%
- AE SOC frequency: Gastrointestinal Disorders (human, in vivo): 20.9%
- AE SOC frequency: Hepatobiliary Disorders (human, in vivo): 3.7%
- AE SOC frequency: Infections and Infestations (human, in vivo): 28.4%
- AE SOC frequency: Investigators (human, in vivo): 12.7%
- AE SOC frequency: Metabolism and Nutrition Disorders (human, in vivo): 14.2%
- AE SOC frequency: Musculoskeletal and Connective Tissue Disorders (human, in vivo): 25.4%
- AE SOC frequency: Neoplasms Benign Malignant and Unspecified (human, in vivo): 2.2%
- AE SOC frequency: Renal and Urinary Disorders (human, in vivo): 10.4%
- AE SOC frequency: Respiratory, Thoracic and Mediastinal Disorders (human, in vivo): 15.7%
- AE frequency: arthralgia (human, in vivo): 5.2%
- AE frequency: cardiac failure (human, in vivo): 5.2%
- AE frequency: chronic kidney disease (human, in vivo): 3.0%
- AE frequency: constipation (human, in vivo): 6.0%
- AE frequency: epistaxis (human, in vivo): 3.0%
- AE frequency: hematuria (human, in vivo): 3.0%
- AE frequency: hypomagnesaemia (human, in vivo): 3.0%
- AE frequency: hypotension (human, in vivo): 9.7%
- AE frequency: pneumonia (human, in vivo): 3.0%
- AE frequency: upper respiratory tract infection (human, in vivo): 6.0%
- AE of symptomatic bradycardia or bradycardia leading to dose reduction or discontinuation of study drug, patients N (%) (human, in vivo): 4 (3.0%)
- AEs leading to permanent study drug discontinuation (human, in vivo): 8.2%
- AEs: Bradycardia (human, in vivo): 3.7%
- AEs: Stroke (99% on OACs) (human, in vivo): 0.0%
- Adverse event possible/probably related to study drug, patients N (%) (human, in vivo): 32 (23.9%)
- Adverse events leading to permanent study drug discontinuation, patients N (%) (human, in vivo): 11 (8.2%)
- Adverse events related to neoplasm, patients N (%) (human, in vivo): 3 (2.2%)
- Any bradycardia event, % of patients (human, in vivo): (4%)
- Any bradycardia event, number of patients (human, in vivo): 5
- Any bradycardia, % of patients (human, in vivo): (4%)
- Any bradycardia, number of patients (human, in vivo): 5
- Any serious adverse event, % of patients (human, in vivo): (25%)
- Any serious adverse event, number of patients (human, in vivo): 33
- Asymptomatic bradycardia event, % of patients (human, in vivo): (0%)
- Asymptomatic bradycardia event, number of patients (human, in vivo): 0
- Asymptomatic bradycardia, % of patients (human, in vivo): (0%)
- Asymptomatic bradycardia, number of patients (human, in vivo): 0
- Bradycardia event leading to study drug discontinuation, % of patients (human, in vivo): (1%)
- Bradycardia event leading to study drug discontinuation, number of patients (human, in vivo): 1
- Bradycardia event leading to study drug dose interruption, % of patients (human, in vivo): (0%)
- Bradycardia event leading to study drug dose interruption, number of patients (human, in vivo): 0
- Bradycardia event leading to study drug dose reduction, % of patients (human, in vivo): (2%)
- Bradycardia event leading to study drug dose reduction, number of patients (human, in vivo): 3
- CAD, % of patients (human, in vivo): (6%)
- CAD, number of patients (human, in vivo): 8
- Cardiac AE rate (heart failure or bradycardia events) (human, in vivo): 25%
- Cardiovascular serious adverse event, % of patients (human, in vivo): (9%)
- Cardiovascular serious adverse event, number of patients (human, in vivo): 12
- Catheterization, % of patients (human, in vivo): (4%)
- Catheterization, number of patients (human, in vivo): 5
- Heart block (Mobitz I/II, 2:1, or 3rd degree), % of patients (human, in vivo): (0%)
- Heart block (Mobitz I/II, 2:1, or 3rd degree), number of patients (human, in vivo): 0
- ICD Implantation, % of patients (human, in vivo): (4%)
- ICD Implantation, number of patients (human, in vivo): 5
- Incidence of Cr > 3.0, % of patients (human, in vivo): (1%)
- Incidence of Cr > 3.0, number of patients (human, in vivo): 1
- Incidence of bilirubin > 2.0, % of patients (human, in vivo): (1%)
- Incidence of bilirubin > 2.0, number of patients (human, in vivo): 1
- Non-CNS Embolism, % of patients (human, in vivo): (0%)
- Non-CNS Embolism, number of patients (human, in vivo): 0
- Pacemaker Implantation, % of patients (human, in vivo): (1%)
- Pacemaker Implantation, number of patients (human, in vivo): 1
- REPRODUCTIVE SYSTEM AND BREAST DISORDERS, % of patients (human, in vivo): (0.0%)
- REPRODUCTIVE SYSTEM AND BREAST DISORDERS, number of patients (human, in vivo): 0
- SAE SOC frequency: Infections and Infestations (human, in vivo): 4.5%
- SAE SOC frequency: Renal and Urinary Disorders (human, in vivo): 3.0%
- SAE SOC frequency: Respiratory, Thoracic and Mediastinal Disorders (human, in vivo): 5.2%
- SAE frequency: Cardiac Failure (human, in vivo): 3.0%
- SAE frequency: Cardiac Failure Congestive (human, in vivo): 2.2%
- SAEs: Any cardiovascular event (human, in vivo): 9.0%
- SINUS BRADYCARDIA, % of patients (human, in vivo): (0.0%)
- SINUS BRADYCARDIA, number of patients (human, in vivo): 0
- Stroke, % of patients (human, in vivo): (0%)
- Stroke, number of patients (human, in vivo): 0
- Symptomatic bradycardia event, % of patients (human, in vivo): (4%)
- Symptomatic bradycardia event, number of patients (human, in vivo): 5
- Symptomatic bradycardia, % of patients (human, in vivo): (4%)
- Symptomatic bradycardia, number of patients (human, in vivo): 5
- TIA, % of patients (human, in vivo): (0%)
- TIA, number of patients (human, in vivo): 0
- UPPER RESPIRATORY TRACT INFECTION, % of patients (human, in vivo): (5.7%)
- UPPER RESPIRATORY TRACT INFECTION, number of patients (human, in vivo): 6
- All-cause hospitalization, patients N (%) (human, in vivo, 42 days): 7 (5%)
- Any serious adverse event, patients N (%) (human, in vivo, 42 days): 8 (6%)
- Asymptomatic bradycardia, patients N (%) (human, in vivo, 42 days): 0 (0%)
- Cardiovascular hospitalization, patients N (%) (human, in vivo, 42 days): 5 (4%)
- Heart failure hospitalization, patients N (%) (human, in vivo, 42 days): 1 (1%)
- Symptomatic bradycardia, patients N (%) (human, in vivo, 42 days): 2 (1%)
- Treatment-related cardiovascular serious adverse event, patients N (%) (human, in vivo, 42 days): 0 (0%)
- Treatment-related serious adverse event, patients N (%) (human, in vivo, 42 days): 1 (1%)
- Ablation, % of patients (in vivo): (16%)
- Ablation, number of patients (in vivo): 21
- Additional ECV After Successful SR, % of patients (in vivo): (28%)
- Additional ECV After Successful SR, number of patients (in vivo): 37
- Anti-Arrhythmic Therapy, % of patients (in vivo): (34%)
- Anti-Arrhythmic Therapy, number of patients (in vivo): 46
- Appropriate Firing of on ICD, % of patients (in vivo): (0%)
- Appropriate Firing of on ICD, number of patients (in vivo): 0
- Bradycardia AEs (in vivo): none
- Rate Control Therapy, % of patients (in vivo): (15%)
- Rate Control Therapy, number of patients (in vivo): 20
- HEADACHE, % of patients [4]: (4.5%)
- HEADACHE, number of patients [4]: 6
- INFECTIONS AND INFESTATIONS, % of patients [4]: (26.9%)
- INFECTIONS AND INFESTATIONS, number of patients [4]: 36
- INFLUENZA, % of patients [4]: (3.0%)
- INFLUENZA, number of patients [4]: 4
- UPPER RESPIRATORY TRACT INFECTION, % of patients [4]: (5.2%)
- UPPER RESPIRATORY TRACT INFECTION, number of patients [4]: 7
- INFECTIONS AND INFESTATIONS, % of patients (treatment-emergent serious AE): (4.5%)
- INFECTIONS AND INFESTATIONS, number of patients (treatment-emergent serious AE): 6
